Results on ten molecules are retold here after patent US4436751A, “Nitrobenzyl monates antibacterial compounds” (Beecham Group Limited, priority 1980, dated 1984).

Converted amounts (≈) assume the structure as drawn. Read-outs that look alike come from different tables or passages of the source.

What all share (format): cell-based
In one test the test system is M. pneumoniae ATCC 15492. The test is described as follows: Anti-mycoplasmal MIC in vitro, Friis broth agarose (Table 1). As to conditions: Mycoplasmoides pneumoniae, ATCC15492, 144 h.
Test [1] relates to Treponema hyodysenteriae S77/10. The test can be described thus: MIC against Treponema hyodysenteriae, horse blood agar (Table 4). As to conditions: Brachyspira hyodysenteriae, 48 h; strain S77/10; 2 days 37° C. anaerobic; read-out: Minimum Inhibitory Concentration (MIC), inhibition of β-haemolysis. The method, then:
(§1) The value were obtained by the following method: The compound was incorporated in horse blood agar, inoculated (multi-point)with 0.001 ml of a 3 day growth of the test organism from base of a blood slope (+1 ml foetal calf serum) and incubated at 37° C. for 2 days under anaerobic conditions. The MIC was taken as the lowest concentration to inhibit β-haemolysis.

The test system of test [2] is Treponema hyodysenteriae Navis. The test is described as above. Conditions: Brachyspira hyodysenteriae, 48 h; strain Navis; 2 days 37° C. anaerobic; read-out: Minimum Inhibitory Concentration (MIC), inhibition of β-haemolysis. How it is done:
as §1

In test [3] the test system is Treponema hyodysenteriae P23. The test is described as above. As to conditions: Brachyspira hyodysenteriae, 48 h; strain P23; 2 days 37° C. anaerobic; read-out: Minimum Inhibitory Concentration (MIC), inhibition of β-haemolysis. The method, then: as §1
Test [4] relates to Treponema hyodysenteriae S77/2. The description is as above. Conditions: Brachyspira hyodysenteriae, 48 h; strain S77/2; 2 days 37° C. anaerobic; read-out: Minimum Inhibitory Concentration (MIC), inhibition of β-haemolysis. The method, then: as §1
In test [5] the test system is Treponema hyodysenteriae B10. The test is described as above. As to conditions: Brachyspira hyodysenteriae, 48 h; strain B10; 2 days 37° C. anaerobic; read-out: Minimum Inhibitory Concentration (MIC), inhibition of β-haemolysis. The method, then:
as §1

Another test concerns bacteria. The test is described as follows: Antibacterial activity (summary). Conditions: in words. How it is done: The values were determined using a two fold serial dilutions in Diagnostic Sensitivity Test Agar with an inoculum of 10^4 organisms and incubation for 18 hours at 37° C.
(§2) The values were determined by serial dilutions in nutrient agar with 5% chocolated horse blood after incubations for 18 hours at 37° C.

In test [6] the test system is Haemophilus influenzae Wy21. The test can be described thus: Human bacteria MIC, nutrient agar with chocolated horse blood (Table 3). Conditions: nutrient agar 5% chocolated horse blood, 18 hours 37° C. How it is done:
as §2

The next test deals with M1 -suiphneumoniae. The test is described as follows: Anti-mycoplasmal activity relative to O-nitrobenzyl monate A.
The next test deals with mycoplasma organisms. The test can be described thus: Anti-mycoplasmal activity (summary). Conditions: in words. How it is done:
The values were determines in Friis broth solidified with 0.9% agarose. The inoculum was 10^3 to 10^5 C.F.U. and the MIC's were recorded after 6 days incubation at 37° C.

The mark [7] stands for this setting: M. pneumoniae ATCC 15492, in vitro, 6 days 37° C., read-out: MIC.

`C/C(=C\C(=O)OC(C)c1cccc([N+](=O)[O-])c1)CC1OCC(CC2OC2C(C)C(C)O)C(O)C1O` (stereo not drawn) [Example 3, 1-(m-nitrophenyl)ethyl monate A] returned an MIC in the test with M. pneumoniae ATCC 15492 of 5 mg/L (≈ 10.1 µM).

As to `C/C(=C\C(=O)OCc1ccc([N+](=O)[O-])cc1)CC1OCC(CC2OC2C(C)C(C)O)C(O)C1O` (stereo not drawn) [Example 1, p-nitrobenzyl monate A], the MIC in test [1] amounted to 2.5 mg/L (≈ 5.21 µM); in test [2], 2.5 mg/L (≈ 5.21 µM); in test [3] it was 2.5 mg/L (≈ 5.21 µM); in test [4] it was 2.5 mg/L (≈ 5.21 µM); in test [5], 2.5 mg/L (≈ 5.21 µM); in the test on M. pneumoniae ATCC 15492 (setting [7]), 0.1 mg/L (≈ 0.209 µM). Besides, the “antibacterial activity as compared to o-nitrobenzyl monate A” value in the test on bacteria is on record as “outstanding antibacterial activity”.

With `C/C(=C\C(=O)OC(C)c1ccc([N+](=O)[O-])cc1)CC1OCC(CC2OC2C(C)C(C)O)C(O)C1O` (stereo not drawn) [Example 4, 1-(p-nitrophenyl)ethyl monate A], the MIC in the test on M. pneumoniae ATCC 15492 (setting [7]) was 10 mg/L (≈ 20.3 µM).

As to `C/C(=C\C(=O)OCc1ccc([N+](=O)[O-])cc1[N+](=O)[O-])CC1OCC(CC2OC2C(C)C(C)O)C(O)C1O` (stereo not drawn) [Example 10, 2,4-dinitrobenzyl monate A], the MIC in test [6] was 0.5 mg/L (≈ 0.953 µM); in the test with M. pneumoniae ATCC 15492, 2.5 mg/L (≈ 4.77 µM).

Take `C/C(=C\C(=O)OCc1cc([N+](=O)[O-])cc([N+](=O)[O-])c1C)CC1OCC(CC2OC2C(C)C(C)O)C(O)C1O` (stereo not drawn) [Example 7, 3,5-dinitro-2-methylbenzyl monate A]: the MIC in test [6] was 1 mg/L (≈ 1.86 µM); against M. pneumoniae ATCC 15492, 2.5 mg/L (≈ 4.64 µM).

As for `C/C(=C\C(=O)OCc1cc([N+](=O)[O-])cc([N+](=O)[O-])c1)CC1OCC(CC2OC2C(C)C(C)O)C(O)C1O` (stereo not drawn) [Example 6, 3,5-dinitrobenzyl monate A], the MIC in test [6] worked out at 0.5 mg/L (≈ 0.953 µM); in the test on M. pneumoniae ATCC 15492 it was 2.5 mg/L (≈ 4.77 µM).

`C/C(=C\C(=O)OCc1ccc([N+](=O)[O-])c([N+](=O)[O-])c1)CC1OCC(CC2OC2C(C)C(C)O)C(O)C1O` (stereo not drawn) [Example 9, 3,4-dinitrobenzyl monate A] gave an MIC in test [6] of 0.25 mg/L (≈ 0.477 µM).

Molecule `C/C(=C\C(=O)OCc1ccc([N+](=O)[O-])cc1Cl)CC1OCC(CC2OC2C(C)C(C)O)C(O)C1O` (stereo not drawn) [Example 11, 2-chloro-4-nitrobenzyl monate A] came in with an MIC in the test with M. pneumoniae ATCC 15492 of 2.5 mg/L (≈ 4.86 µM).

`C/C(=C\C(=O)OCc1ccccc1[N+](=O)[O-])CC1OCC(CC2OC2C(C)C(C)O)C(O)C1O` (stereo not drawn) [C, O--nitrobenzyl monate A, reference compound]: the MIC in the test on M. pneumoniae ATCC 15492 (setting [7]) was 5 mg/L (≈ 10.4 µM).

For the molecule `C/C(=C\C(=O)OCc1cccc([N+](=O)[O-])c1)CC1OCC(CC2OC2C(C)C(C)O)C(O)C1O` (stereo not drawn) [Example 2, m-nitrobenzyl monate A], the “times more active than O-nitrobenzyl monate A” value in the test with M1 -suiphneumoniae is “approximately 20 times”. Moreover, in the test with mycoplasma organisms, the anti-mycoplasmal activity entry is listed as “outstanding anti-mycoplasmal activity”. Further, the MIC with M. pneumoniae ATCC 15492 (setting [7]) stood at 1 mg/L (≈ 2.09 µM).
